Assay results taken from patent US12370162B1 (Rplushealth Limited, priority 2024, dated 2025).

Experiments:
[1] = system: A431, MCF-7, HeLa, HepG2, PC3, SKOV3, A549, U251, K562, and Caco-2 tumor cells; test: Transwell migration assay with serine/glycine at different levels; type: cell-based; conditions: low serine level or low glycine level compared to high serine and glycine levels
[2] = system: A431, MCF-7, HeLa, HepG2, PC3, SKOV3, A549, U251, K562, and Caco-2 tumor cells; test: MTT assay, tumor cell growth with serine/glycine at different levels; type: cell-based; conditions: low serine level or low glycine level compared to high serine and glycine levels; 48 hours culture

Row | Compound | migration capability (Transwell, metastasis %) [1] | cell growth (MTT, growth %) [2]
1 | NCC(=O)O [glycine] | relatively high migration capability | grew slowly
2 | N[C@@H](CO)C(=O)O [serine] | relatively high migration capability | grew slowly
